Where “and” joins values, the source holds several entries; their conditions need not be identical. Equal entries are not always repeated. Where two headings read alike, the source gives them in different places.

Our source for the IC50 and SI values is publication PMC11174103 (Molecules, 2024).

One test concerns the target T1, hMAO-B (Homo sapiens, UniProt P27338).
T1 construct: purchased Sigma-Aldrich
T1 sequence (P27338 1-520): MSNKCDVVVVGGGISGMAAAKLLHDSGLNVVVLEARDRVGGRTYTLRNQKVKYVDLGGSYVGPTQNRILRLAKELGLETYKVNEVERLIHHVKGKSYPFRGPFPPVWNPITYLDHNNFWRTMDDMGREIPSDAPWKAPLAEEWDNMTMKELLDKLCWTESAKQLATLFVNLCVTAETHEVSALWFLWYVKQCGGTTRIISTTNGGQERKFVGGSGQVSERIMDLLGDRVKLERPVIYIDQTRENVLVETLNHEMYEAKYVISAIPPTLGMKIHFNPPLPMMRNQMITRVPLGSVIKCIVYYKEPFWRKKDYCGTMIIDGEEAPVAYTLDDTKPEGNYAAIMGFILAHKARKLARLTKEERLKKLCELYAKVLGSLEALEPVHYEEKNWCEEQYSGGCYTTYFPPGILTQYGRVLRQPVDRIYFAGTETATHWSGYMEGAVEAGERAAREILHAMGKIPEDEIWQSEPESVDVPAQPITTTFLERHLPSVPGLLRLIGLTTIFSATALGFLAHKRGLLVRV
Description: In vitro MAO-B enzyme inhibitory activity (recombinant human enzyme, benzylamine substrate). Format: biochemical. The note with it: for IC50: recombinant human MAO-B, mean ± SD of 3 independent experiments in triplicate; for SI: SI = IC50 (hMAO-A)/IC50 (hMAO-B) ratio. The method, then:
(§1) The Novaroli et al. method was used with minor modifications to study the biological activities of MAO-A and MAO-B in vitro. A preincubation step was carried out at 37 °C for 10 min, in which 140 μL of 0.1 M potassium phosphate-buffered solution at pH 7.4, 8 μL of 0.75 mM kynuramine, and 2 μL of a dimethyl sulfoxide (DMSO) solution (i.e., final DMSO and inhibitor concentrations of 1% (v/v) and 0–1 μM, respectively). Diluted human recombinant enzyme (50 μL) was added to achieve the final protein concentration, and the mixture was incubated at 37 °C. After 20 min, the reaction was stopped with the addition of 75 μL of 2 M NaOH. […] Each measurement was repeated three times. DMSO was used as control. IC50 values were then calculated. […] The determination of IC50 values for inhibition of MAO enzymes involved the use of recombinant human MAO-A and MAO-B enzymes (purchased from Sigma-Aldrich). The initial rates of oxidation were measured in a 1 mL cuvette containing 50 mM of sodium phosphate (pH 7.4) at 25 °C, as described previously, except for the substrate concentrations and assay times. […] Meanwhile, the assessment of MAO-B activity employed 0.6 mM of benzylamine as the substrate, with absorbance changes measured at 250 nm for 10 min. Substrate addition initiated the reaction, and the reaction rates were quantified as alterations in absorbance per minute.

In another test the target is T2, hMAO-A (Homo sapiens, UniProt P21397).
T2 construct: purchased Sigma-Aldrich
T2 sequence (P21397 1-527): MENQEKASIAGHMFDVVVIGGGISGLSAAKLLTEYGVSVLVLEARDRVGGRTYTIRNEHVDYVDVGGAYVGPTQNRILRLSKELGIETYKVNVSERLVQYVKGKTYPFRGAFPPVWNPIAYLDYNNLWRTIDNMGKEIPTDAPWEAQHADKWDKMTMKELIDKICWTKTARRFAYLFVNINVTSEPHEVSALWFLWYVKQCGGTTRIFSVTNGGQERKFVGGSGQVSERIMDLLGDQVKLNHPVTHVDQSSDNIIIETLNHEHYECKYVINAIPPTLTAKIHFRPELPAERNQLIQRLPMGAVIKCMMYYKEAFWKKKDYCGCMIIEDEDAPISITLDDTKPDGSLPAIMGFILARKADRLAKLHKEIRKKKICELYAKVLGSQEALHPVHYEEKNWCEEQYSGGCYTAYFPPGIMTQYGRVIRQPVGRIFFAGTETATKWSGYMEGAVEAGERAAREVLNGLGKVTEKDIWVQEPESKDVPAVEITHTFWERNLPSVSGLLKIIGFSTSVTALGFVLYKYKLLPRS
As to the kind of experiment: In vitro MAO-A enzyme inhibitory activity (recombinant human enzyme, kynuramine substrate). Format: biochemical. The method, then:
as §1

[1] abbreviates: recombinant human MAO-A, mean ± SD of 3 independent experiments in triplicate, read-out: IC50 hMAO-A.

The IC50 is the concentration at which inhibition is half-maximal. For the compound `C(#CC1(N2CCCCC2)CCCCC1)c1ccccc1` [4a, 1-(1-(phenylethynyl)cyclohexyl)piperidine], the IC50 at hMAO-B stood at 274.2 ± 2.68 nM. Take `C(#CC1(N2CCCC2c2cccnc2)CCCCC1)c1ccccc1` (stereo not drawn) [4aa, 3-(1-(1-(Phenylethynyl)cyclohexyl)pyrrolidin-2-yl)pyridine]: at hMAO-B, the SI is on record as 4.70 and the IC50 was determined as 168 ± 2.12 nM. Also, the IC50 at hMAO-A worked out at 791.3 ± 6.72 nM.

On to `CC(C)(O)C#CC1(N2CCN(c3ccccc3)CC2)CCCCC1` [4ab, 2-Methyl-4-(1-(4-phenylpiperazin-1-yl)cyclohexyl)but-3-yn-2-ol], for which, at hMAO-B, the SI was determined as 5.06 and the IC50 was determined as 167 ± 2.01 nM. The IC50 at hMAO-A (setting [1]) is 845.8 ± 6.83 nM. For the compound `C(#CC1(NCc2ccccc2)CCCCC1)c1ccccc1` [4ac, N-Benzyl-1-(phenylethynyl)cyclohexanamine], at hMAO-B, the IC50 was found to be 278.4 ± 2.71 nM. In the case of `CC(C)(O)C#CC1(NCc2ccc(F)cc2)CCCCC1` [4ad, 4-(1-((4-Fluorobenzyl)amino)cyclohexyl)-2-methylbut-3-yn-2-ol], the SI at hMAO-B stood at 4.74. Further, the IC50 on hMAO-B stood at 161 ± 1.97 nM; on hMAO-A (setting [1]), 765.6 ± 6.42 nM.

Consider `C(#CC1(NCc2ccccc2)CC2CCC1C2)c1ccccc1` (stereo not drawn) [4ae, N-Benzyl-2-(phenylethynyl)bicyclo[2.2.1]heptan-2-amine], for which the half-maximal inhibitory concentration (IC50) on hMAO-B was found to be 321.6 ± 2.94 nM. With `C(#CC1(N2CCCC2)CCCC1)c1ccccc1` [4b, 1-(1-(phenylethynyl)cyclopentyl)pyrrolidine], at hMAO-B, the IC50 is 182 ± 2.21 nM. In the case of `C(#CC1(N2CCCC2)CCCCCC1)c1ccccc1` [4c, 1-(1-(phenylethynyl)cycloheptyl)pyrrolidine], the IC50 at hMAO-B is 183 ± 2.12 nM. Take `C(#CC1(N2CCOCC2)CCCCC1)c1ccccc1` [4d, 4-(1-(Phenylethynyl)cyclohexyl)morpholine]: the IC50 at hMAO-B is 174 ± 2.08 nM. Still for that read-out and setting: the result for `CCCN(CCC)C1(C#Cc2ccccc2)CCCCC1` [4e, 1-(phenylethynyl)-N, N-dipropylcyclohexan-1-amine] reads 286.1 ± 2.74 nM. With `Clc1ccc(C#CC2(N3CCCCC3)CCCCC2)cc1` [4f, 1-(1-((4-chlorophenyl)ethynyl)cyclohexyl)piperidine], the concentration for half-maximal inhibition (IC50) at hMAO-B is 175 ± 2.11 nM. For `Cc1ccc(C#CC2(N3CCCC3)CCCCC2)cc1` [4g, 1-(1-(p–tolylethynyl)cyclohexyl)pyrrolidine], the concentration for half-maximal inhibition (IC50) at hMAO-B worked out at 189 ± 2.24 nM. Regarding `Clc1ccc(C#CC2(N3CCCC3)CCCCC2)cc1` [4h, 1-(1-((4-chlorophenyl)ethynyl)cyclohexyl)pyrrolidine], at hMAO-B, the IC50 came out at 172 ± 2.1 nM.

For `COc1ccc(C#CC2(N3CCCCC3)CCCCC2)cc1` [4i, 1-(1-((4-methoxyphenyl)ethynyl)cyclohexyl)piperidine], the IC50 at hMAO-B is 172 ± 2.1 nM. For the compound `C(#CC1(N2CCCC2c2cccnc2)CCCC1)c1ccccc1` (stereo not drawn) [4j, 3-(1-(1-(Phenylethynyl)cyclopentyl)pyrrolidin-2-yl)pyridine], on hMAO-B, the SI amounted to 5.23 and the IC50 is 165 ± 2.03 nM. For the same compound, the IC50 on hMAO-A (setting [1]) came to 861.5 ± 6.97 nM. Consider `CC(C)(O)C#CC1(N2CCCC2c2cccnc2)CCCCC1` (stereo not drawn) [4k, 2-methyl-4-(1-(2-(pyridin-3-yl)pyrrolidin-1-yl)cyclohexyl)but-3-yn-2-ol], for which the SI at hMAO-B is given as 5.24. Also, the IC50 on hMAO-B was determined as 152 ± 1.95 nM; on hMAO-A (setting [1]), 797.1 ± 6.73 nM.

Consider `C(#CC1(NC2CCCCC2)CCCCC1)c1ccccc1` [4l, N-cyclohexyl-1-(phenylethynyl)cyclohexan-1-amine], for which, at hMAO-B, the IC50 came out at 294 ± 3.06 nM. Take `COc1ccc(CNC2(C#Cc3ccccc3)CCCCC2)cc1` [4m, N-(4-methoxybenzyl)-1-(phenylethynyl)cyclohexanamine]: on hMAO-B, the SI was found to be 4.86. Besides, the IC50 on hMAO-B turned out to be 165 ± 2.01 nM; at hMAO-A (setting [1]), 802.9 ± 7.03 nM. For `C(#CC1(N2CCCCC2)CCCC1)c1ccccc1` [4n, 1-(1-(phenylethynyl)cyclopentyl)piperidine], the IC50 at hMAO-B is 272.3 ± 2.54 nM.

Consider `CCC(C)(C#Cc1ccccc1)N1CCCC1` (stereo not drawn) [4o, 1-(3-Methyl-1-phenylpent-1-yn-3-yl)pyrrolidine], for which the half-inhibitory concentration (IC50) on hMAO-B was determined as 312 ± 3.17 nM. `CCCC(C)(C#Cc1ccccc1)N1CCCC1` (stereo not drawn) [4p, 1-(3-Methyl-1-phenylhex-1-yn-3-yl)pyrrolidine]: the IC50 at hMAO-B stood at 203 ± 2.24 nM.

On to `CCC(C#Cc1ccccc1)(CC)N1CCCC1` [4q, 1-(3-Ethyl-1-phenylpent-1-yn-3-yl)pyrrolidine], for which the IC50 on hMAO-B was 317 ± 3.24 nM.

On to `CCCCCCC(C#Cc1ccccc1)(CCC)N1CCCC1` (stereo not drawn) [4r, 1-(4-(Phenylethynyl)decan-4-yl)pyrrolidine], for which the IC50 at hMAO-B was 323.4 ± 3.21 nM. `CC1CCCCC1(C#Cc1ccccc1)N1CCCC1` (stereo not drawn) [4s, 1-(2-Methyl-1-(phenylethynyl)cyclohexyl)pyrrolidine]: the 50% inhibitory concentration (IC50) on hMAO-B is 281.3 ± 2.75 nM. Regarding `CC1CCCC(C#Cc2ccccc2)(N2CCCC2)C1` (stereo not drawn) [4t, 1-(3-Methyl-1-(phenylethynyl)cyclohexyl)pyrrolidine], on hMAO-B, the half-maximal inhibitory concentration (IC50) is 192 ± 2.41 nM. Turning to `C(#CC1(N2CCCCC2)CC2CCC1C2)c1ccccc1` (stereo not drawn) [4u, 1-(2-(Phenylethynyl)bicyclo[2.2.1]heptan-2-yl)piperidine], the half-inhibitory concentration (IC50) on hMAO-B is 346 nM and 277 nM. As for `Cc1cccc(C#CC2(N3CCCCC3)CCCCC2)c1` [4w, 1-(1-(m-Tolylethynyl)cyclohexyl)piperidine], the IC50 at hMAO-B is 281.9 ± 2.72 nM. Take `COc1ccc(C#CC2(N3CCCCC3)CCCCC2)c(C)c1` [4x, 1-(1-((4-Methoxy-2-methylphenyl)ethynyl)cyclohexyl)piperidine]: at hMAO-B, the IC50 was determined as 267.4 ± 2.52 nM. `Brc1ccccc1C#CC1(N2CCCCC2)CCCCC1` [4y, 1-(1-((2-Bromophenyl)ethynyl)cyclohexyl)piperidine]: the half-inhibitory concentration (IC50) on hMAO-B was 277.4 ± 2.71 nM. The same measure, in the same setting: the result for `CCOC(=O)C1CCN(C2(C#Cc3ccccc3)CCCCC2)CC1` [4z, Ethyl 1-(1-(phenylethynyl)cyclohexyl)piperidine-4-carboxylate] reads 213 ± 2.24 nM.
